# Key:
# Type in all cases: in vivo
# [1] = tested on: foxtail, giant (giant foxtail, Setaria faberi); experiment: Test C preemergence, giant foxtail; details: 0 is no effect, 100 is complete control
# Excerpt: (§1) Seeds of plant species selected from blackgrass (Alopecurus myosuroides), corn (Zea mays), foxtail, giant (giant foxtail, Setaria faberi), goosegrass (Eleusine indica), kochia (Bassia scoparia), oat, wild (wild oat, Avena fatua), pigweed, palmer (palmer amaranth, Amaranthus palmeri), ragweed (common ragweed, Ambrosia artemisiifolia), ryegrass, Italian (Italian ryegrass, Lolium multiflorum), soybean (Glycine max) and wheat (Triticum aestivum) were planted into a blend of loam soil and sand and treated preemergence with a directed soil spray using test chemicals formulated in a non-phytotoxic solvent mixture which included a surfactant.
# (§2) At the same time, plants selected from these crop and weed species and also galium (catchweed bedstraw, Galium aparine) and horseweed (Erigeron canadensis) were planted in pots containing the same blend of loam soil and sand and treated with postemergence applications of test chemicals formulated in the same manner. Plants ranged in height from 2 to 10 cm and were in the one- to two-leaf stage for the postemergence treatment. Treated plants and untreated controls were maintained in a greenhouse for 10 or 12 days, after which time all treated plants were compared to untreated controls and visually evaluated for injury. Plant response ratings, summarized in Table A, are based on a 0 to 100 scale where 0 is no effect and 100 is complete control. A dash (-) response means no test result.
# [2] = tested on: ragweed (common ragweed, Ambrosia artemisiifolia); experiment: Test C postemergence, ragweed; details: visual injury, 0 to 100 scale (0 no effect, 100 complete control)
# Excerpt: as §1, §2
# rice (Oryza sativa) = experiment: Test D flooded paddy test, rice; set-up: key: 0 = no effect, 100 = complete control; details: 250 g ai/ha, Flood; applied to paddy water at 2-leaf stage; visual rating after 13 days; scale 0 (no effect) to 100 (complete control)
# Description: (§3) Plant species in the flooded paddy test selected from barnyardgrass (Echinochloa crusgalli), ducksalad (Heteranthera limosa), rice (Oryza sativa), and sedge, umbrella (small-flower umbrella sedge, Cyperus difformis) were grown to the 2-leaf stage for testing. At time of treatment, test pots were flooded to 3 cm above the soil surface, treated by application of test compounds directly to the paddy water, and then maintained at that water depth for the duration of the test. Treated plants and controls were maintained in a greenhouse for 13 days, after which time all species were compared to controls and visually evaluated. Plant response ratings, summarized in Table B, are based on a scale of 0 to 100 where 0 is no effect and 100 is complete control. A dash (-) response means no test result.
# [3] = tested on: pigweed, palmer (palmer amaranth, Amaranthus palmeri); experiment: Test C postemergence, palmer amaranth; details: visual injury, 0 to 100 scale (0 no effect, 100 complete control)
# Excerpt: as §1, §2
# [4] = tested on: goosegrass (Eleusine indica); experiment: Test C preemergence, goosegrass; details: 0 is no effect, 100 is complete control
# Excerpt: as §1, §2
# [5] = tested on: ducksalad (Heteranthera limosa); experiment: Test D flooded paddy test, ducksalad; set-up: key: 0 = no effect, 100 = complete control; details: 250 g ai/ha, Flood; applied to paddy water at 2-leaf stage; visual rating after 13 days; scale 0 (no effect) to 100 (complete control)
# Description: as §3
# [6] = tested on: barnyardgrass (Echinochloa crusgalli); experiment: Test D flooded paddy test, barnyardgrass; set-up: key: 0 = no effect, 100 = complete control; details: 250 g ai/ha, Flood; applied to paddy water at 2-leaf stage; visual rating after 13 days; scale 0 (no effect) to 100 (complete control)
# Description: as §3
# [7] = tested on: oat, wild (wild oat, Avena fatua); experiment: Test C preemergence, wild oat; details: 0 is no effect, 100 is complete control
# Excerpt: as §1, §2
# soybean (Glycine max) [8] = experiment: Test C preemergence, soybean; details: 0 is no effect, 100 is complete control
# Excerpt: as §1, §2
# kochia (Bassia scoparia) [9] = experiment: Test C postemergence, kochia
# Excerpt: as §1, §2
# [10] = tested on: pigweed, palmer (palmer amaranth, Amaranthus palmeri); experiment: Test C preemergence, palmer amaranth; details: 0 is no effect, 100 is complete control
# Excerpt: as §1, §2
# [11] = tested on: sedge, umbrella (small-flower umbrella sedge, Cyperus difformis); experiment: Test D flooded paddy test, umbrella sedge; set-up: key: 0 = no effect, 100 = complete control; details: 250 g ai/ha, Flood; applied to paddy water at 2-leaf stage; visual rating after 13 days; scale 0 (no effect) to 100 (complete control)
# Description: as §3
# soybean (Glycine max) [12] = experiment: Test C postemergence, soybean; details: visual injury, 0 to 100 scale (0 no effect, 100 complete control)
# Excerpt: as §1, §2
# [13] = tested on: ryegrass, Italian (Italian ryegrass, Lolium multiflorum); experiment: Test C preemergence, Italian ryegrass; details: 0 is no effect, 100 is complete control
# Excerpt: as §1, §2
# corn (Zea mays) [14] = experiment: Test C preemergence, corn; details: 0 is no effect, 100 is complete control
# Excerpt: as §1, §2
# kochia (Bassia scoparia) [15] = experiment: Test C preemergence, kochia; details: 0 is no effect, 100 is complete control
# Excerpt: as §1, §2
# corn (Zea mays) [16] = experiment: Test C postemergence, corn
# Excerpt: as §1, §2
# [17] = tested on: blackgrass (Alopecurus myosuroides); experiment: Test C preemergence, blackgrass; details: 0 is no effect, 100 is complete control
# Excerpt: as §1, §2
# [18] = tested on: wheat (Triticum aestivum); experiment: Test C postemergence, wheat; details: visual injury, 0 to 100 scale (0 no effect, 100 complete control)
# Excerpt: as §1, §2
# [19] = tested on: foxtail, giant (giant foxtail, Setaria faberi); experiment: Test C postemergence, giant foxtail
# Excerpt: as §1, §2
# [20] = tested on: ryegrass, Italian (Italian ryegrass, Lolium multiflorum); experiment: Test C postemergence, Italian ryegrass; details: visual injury, 0 to 100 scale (0 no effect, 100 complete control)
# Excerpt: as §1, §2
# [21] = tested on: blackgrass (Alopecurus myosuroides); experiment: Test C postemergence, blackgrass; details: 125 g ai/ha Postemergence; 0 is no effect, 100 is complete control
# [22] = tested on: ragweed (common ragweed, Ambrosia artemisiifolia); experiment: Test C preemergence, ragweed; details: 0 is no effect, 100 is complete control
# Excerpt: as §1, §2
# [23] = tested on: goosegrass (Eleusine indica); experiment: Test C postemergence, goosegrass
# Excerpt: as §1, §2
# [24] = tested on: blackgrass (Alopecurus myosuroides); experiment: Test C postemergence, blackgrass; details: 31 g ai/ha Postemergence; visual injury, 0 to 100 scale (0 no effect, 100 complete control)
# Excerpt: as §1, §2
# [25] = tested on: galium (catchweed bedstraw, Galium aparine); experiment: Test C postemergence, galium
# Excerpt: as §1, §2
# [26] = tested on: wheat (Triticum aestivum); experiment: Test C preemergence, wheat; details: 0 is no effect, 100 is complete control
# Excerpt: as §1, §2
# [27] = tested on: oat, wild (wild oat, Avena fatua); experiment: Test C postemergence, wild oat
# Excerpt: as §1, §2
# [28] = 31 g ai/ha Postemergence, visual injury, 0 to 100 scale (0 no effect, 100 complete control)
# [29] = 125 g ai/ha Postemergence, 0 is no effect, 100 is complete control
structure (smiles),measurement,setting,value
"Cc1cc(C)c(N2CCC(OC3CC3)C2=O)cc1NS(=O)(=O)C(F)(F)F (single isomer, unassigned) [Compound 29]","Plant response rating (0 to 100 scale), Foxtail, Giant",[1]; 31 g ai/ha Preemergence,90
same,"Plant response rating (0 to 100 scale), Foxtail, Giant",[1]; 125 g ai/ha Preemergence,100
same,Ragweed plant response rating,[2]; 31 g ai/ha Postemergence,60
same,Ragweed plant response rating,[2]; 125 g ai/ha Postemergence,80
same,"Plant response rating, Rice",rice (Oryza sativa),85
same,"Pigweed, Palmer plant response rating",[3]; 31 g ai/ha Postemergence,60
same,"Pigweed, Palmer plant response rating",[3]; 125 g ai/ha Postemergence,90
same,"Plant response rating (0 to 100 scale), Goosegrass",[4]; 31 g ai/ha Preemergence,100
same,"Plant response rating (0 to 100 scale), Goosegrass",[4]; 125 g ai/ha Preemergence,100
same,"Plant response rating, Ducksalad",[5],45
same,"Plant response rating, Barnyardgrass",[6],95
same,"Plant response rating (0 to 100 scale), Oat, Wild",[7]; 31 g ai/ha Preemergence,90
same,"Plant response rating (0 to 100 scale), Oat, Wild",[7]; 125 g ai/ha Preemergence,90
same,"Plant response rating (0 to 100 scale), Soybean",soybean (Glycine max) [8]; 31 g ai/ha Preemergence,90
same,"Plant response rating (0 to 100 scale), Soybean",soybean (Glycine max) [8]; 125 g ai/ha Preemergence,100
same,Kochia plant response rating,kochia (Bassia scoparia) [9]; [28],60
same,"Plant response rating (0 to 100 scale), Kochia",kochia (Bassia scoparia) [9]; [29],90
same,"Plant response rating (0 to 100 scale), Pigweed, Palmer",[10]; 31 g ai/ha Preemergence,100
same,"Plant response rating (0 to 100 scale), Pigweed, Palmer",[10]; 125 g ai/ha Preemergence,100
same,"Plant response rating, Sedge, Umbrella",[11],95
same,Soybean plant response rating,soybean (Glycine max) [12]; 31 g ai/ha Postemergence,60
same,Soybean plant response rating,soybean (Glycine max) [12]; 125 g ai/ha Postemergence,100
same,"Plant response rating (0 to 100 scale), Ryegrass, Italian",[13]; 31 g ai/ha Preemergence,100
same,"Plant response rating (0 to 100 scale), Ryegrass, Italian",[13]; 125 g ai/ha Preemergence,100
same,"Plant response rating (0 to 100 scale), Corn",corn (Zea mays) [14]; 31 g ai/ha Preemergence,80
same,"Plant response rating (0 to 100 scale), Corn",corn (Zea mays) [14]; 125 g ai/ha Preemergence,90
same,"Plant response rating (0 to 100 scale), Kochia",kochia (Bassia scoparia) [15]; 31 g ai/ha Preemergence,90
same,"Plant response rating (0 to 100 scale), Kochia",kochia (Bassia scoparia) [15]; 125 g ai/ha Preemergence,100
same,Corn plant response rating,corn (Zea mays) [16]; [28],80
same,"Plant response rating (0 to 100 scale), Corn",corn (Zea mays) [16]; [29],90
same,"Plant response rating (0 to 100 scale), Blackgrass",[17]; 31 g ai/ha Preemergence,90
same,"Plant response rating (0 to 100 scale), Blackgrass",[17]; 125 g ai/ha Preemergence,90
same,Wheat plant response rating,[18]; 31 g ai/ha Postemergence,70
same,Wheat plant response rating,[18]; 125 g ai/ha Postemergence,70
same,"Foxtail, Giant plant response rating",[19]; [28],90
same,"Plant response rating (0 to 100 scale), Foxtail, Giant",[19]; [29],90
same,"Ryegrass, Italian plant response rating",[20]; 31 g ai/ha Postemergence,70
same,"Ryegrass, Italian plant response rating",[20]; 125 g ai/ha Postemergence,100
same,"Plant response rating (0 to 100 scale), Blackgrass",[21],70
same,"Plant response rating (0 to 100 scale), Ragweed",[22]; 31 g ai/ha Preemergence,80
same,"Plant response rating (0 to 100 scale), Ragweed",[22]; 125 g ai/ha Preemergence,90
same,Goosegrass plant response rating,[23]; [28],90
same,"Plant response rating (0 to 100 scale), Goosegrass",[23]; [29],90
same,Blackgrass plant response rating,[24],60
same,Galium plant response rating,[25]; [28],80
same,"Plant response rating (0 to 100 scale), Galium",[25]; [29],100
same,"Plant response rating (0 to 100 scale), Wheat",[26]; 31 g ai/ha Preemergence,90
same,"Plant response rating (0 to 100 scale), Wheat",[26]; 125 g ai/ha Preemergence,100
same,"Oat, Wild plant response rating",[27]; [28],20
same,"Plant response rating (0 to 100 scale), Oat, Wild",[27]; [29],80

# Source: US20240158348A1, “HERBICIDAL CYCLIC AMIDES N-SUBSTITUTED WITH A HALOALKYLSULFONYLANILIDE GROUP” (FMC Corporation, priority 2021, published 2024)
